Data from PubChem BioAssay AID2060506 (Molecular Pharmacology Branch, DTP, NCI, 2025).
pIC50: −log10 of the molar value.

Test system: 598228-144-R-J1-PDC complex spheroid viability
Test: Anticancer human tumor 598228-144-R-J1-PDC patient-derived serous endometrial adenocarcinoma cell line growth inhibition [GQUAD]
Settings: for pIC50: curve of first compound; for viability, T/C: stronger effect = lower value
In short: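 Tumor cells were grown as complex spheroids with HUVEC endothelial cells and mesenchymal stem cells as stroma. G-quadruplex stabilizers were combined with targeted agents over half-log dilutions from near the clinical Cmax, or from 10 microM.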
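Note: spheroids exposed to the agents for one week before reading.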
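Throughout, for viability, T/C: percent of vehicle DMSO control viability so 100% = untreated growth.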

## C=CC(=O)N1CCN(c2nc(=O)n(-c3c(C)ccnc3C(C)C)c3nc(-c4c(O)cccc4F)c(F)cc23)C(C)C1 (configuration not stated) + Cc1[nH]c2ccc(F)cc2c1-c1nc2c3cccnc3c3ncccc3c2[nH]1
Second compound 0.0316 µM
  pIC50: < 5.00
Second compound 0.1 µM
  pIC50: < 5.00
Second compound 0.316 µM
  pIC50: < 5.00
Second compound 1 µM
  pIC50: < 5.00
Second compound 3.16 µM
  pIC50: > 7.50
Second compound 10 µM
  pIC50: < 5.00
Second compound 0.0316 µM, first compound 0.0316 µM
  viability, T/C: 119%
Second compound 0.0316 µM, first compound 0.1 µM
  viability, T/C: 95%
Second compound 0.0316 µM, first compound 0.316 µM
  viability, T/C: 105%
Second compound 0.0316 µM, first compound 1 µM
  viability, T/C: 132%
Second compound 0.0316 µM, first compound 3.16 µM
  viability, T/C: 136%
Second compound 0.0316 µM, first compound 10 µM
  viability, T/C: 123%
Second compound 0.1 µM, first compound 0.0316 µM
  viability, T/C: 88.4%
Second compound 0.1 µM, first compound 0.1 µM
  viability, T/C: 110%
Second compound 0.1 µM, first compound 0.316 µM
  viability, T/C: 102%
Second compound 0.1 µM, first compound 1 µM
  viability, T/C: 129%
Second compound 0.1 µM, first compound 3.16 µM
  viability, T/C: 136%
Second compound 0.1 µM, first compound 10 µM
  viability, T/C: 151%
Second compound 0.316 µM, first compound 0.0316 µM
  viability, T/C: 75.9%
Second compound 0.316 µM, first compound 0.1 µM
  viability, T/C: 94.8%
Second compound 0.316 µM, first compound 0.316 µM
  viability, T/C: 99.5%
Second compound 0.316 µM, first compound 1 µM
  viability, T/C: 108%
Second compound 0.316 µM, first compound 3.16 µM
  viability, T/C: 159%
Second compound 0.316 µM, first compound 10 µM
  viability, T/C: 108%
Second compound 1 µM, first compound 0.0316 µM
  viability, T/C: 58.6%
Second compound 1 µM, first compound 0.1 µM
  viability, T/C: 62.9%
Second compound 1 µM, first compound 0.316 µM
  viability, T/C: 63.7%
Second compound 1 µM, first compound 1 µM
  viability, T/C: 75.6%
Second compound 1 µM, first compound 3.16 µM
  viability, T/C: 89.3%
Second compound 1 µM, first compound 10 µM
  viability, T/C: 101%
Second compound 3.16 µM, first compound 0.0316 µM
  viability, T/C: 36.1%
Second compound 3.16 µM, first compound 0.1 µM
  viability, T/C: 37.2%
Second compound 3.16 µM, first compound 0.316 µM
  viability, T/C: 55.9%
Second compound 3.16 µM, first compound 1 µM
  viability, T/C: 57.7%
Second compound 3.16 µM, first compound 3.16 µM
  viability, T/C: 59.5%
Second compound 3.16 µM, first compound 10 µM
  viability, T/C: 70%
Second compound 10 µM, first compound 0.0316 µM
  viability, T/C: 57.1%
Second compound 10 µM, first compound 0.1 µM
  viability, T/C: 75.6%
Second compound 10 µM, first compound 0.316 µM
  viability, T/C: 63.8%
Second compound 10 µM, first compound 1 µM
  viability, T/C: 69.1%
Second compound 10 µM, first compound 3.16 µM
  viability, T/C: 80.9%
Second compound 10 µM, first compound 10 µM
  viability, T/C: 103%
